Experimental data: US20230278972A1, “SUBSTITUTED HALOALKYL SULFONANILIDE HERBICIDES” (FMC Corporation, priority 2020, published 2023)

Columns and labels:
Assay type in all cases: in vivo
[1] = test system: blackgrass (Alopecurus myosuroides); assay: Test A1 preemergence, blackgrass
How it was run: (§1)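 Both timings started from seed in a loam-sand blend. Preemergence pots got a directed soil application immediately; postemergence pots were sprayed when seedlings had one or two leaves and stood 2–10 cm. Each compound was prepared in a non-phytotoxic solvent plus surfactant.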

corn (Zea mays) [2] = assay: Test A1 preemergence, corn
How it was run: (§2)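 Herbicidal response was scored on plants treated either preemergence, by directed spray onto soil of a loam–sand blend after sowing, or postemergence on potted plants at the one- to two-leaf stage, 2–10 cm high. Test chemicals were carried in a non-phytotoxic solvent mix with surfactant.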

[3] = test system: Foxtail, Giant (giant foxtail, Setaria faberi); assay: Test A1 preemergence, Foxtail, Giant
How it was run: as §1

[4] = test system: goosegrass (Eleusine indica); assay: Test A1 preemergence, goosegrass
How it was run: as §1

kochia (Bassia scoparia) [5] = assay: Test A1 preemergence, kochia
How it was run: as §1

[6] = test system: Oat, Wild (wild oat, Avena fatua); assay: Test A1 preemergence, Oat, Wild
How it was run: as §1

[7] = test system: Pigweed, Palmer (palmer amaranth, palmer pigweed, Amaranthus palmeri); assay: Test A1 preemergence, Pigweed, Palmer
How it was run: as §1

[8] = test system: ragweed (common ragweed, Ambrosia artemisiifolia); assay: Test A1 preemergence, ragweed
How it was run: as §1

[9] = test system: Ryegrass, Italian (Italian ryegrass, Lolium multiflorum); assay: Test A1 preemergence, Ryegrass, Italian
How it was run: as §1

soybean (Glycine max) [10] = assay: Test A1 preemergence, soybean
How it was run: as §1

[11] = test system: wheat (Triticum aestivum); assay: Test A1 preemergence, wheat
How it was run: as §1

[12] = test system: blackgrass (Alopecurus myosuroides); assay: Test A1 postemergence, blackgrass; settings: 0 to 100 scale (0 no effect, 100 complete control)
How it was run: (§3)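 Seeds were first planted into a blend of loam soil and sand and given a preemergence directed soil spray. In parallel, pots of the same soil were sown for postemergence application once plants reached 2 to 10 cm and the one- to two-leaf stage. Both used surfactant-containing non-phytotoxic solvent formulations.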

corn (Zea mays) [13] = assay: Test A1 postemergence, corn; settings: 0 to 100 scale (0 no effect, 100 complete control)
How it was run: as §1

[14] = test system: Foxtail, Giant (giant foxtail, Setaria faberi); assay: Test A1 postemergence, Foxtail, Giant; settings: 0 to 100 scale (0 no effect, 100 complete control)
How it was run: as §3

[15] = test system: goosegrass (Eleusine indica); assay: Test A1 postemergence, goosegrass; settings: 0 to 100 scale (0 no effect, 100 complete control)
How it was run: as §3

kochia (Bassia scoparia) [16] = assay: Test A1 postemergence, kochia; settings: 0 to 100 scale (0 no effect, 100 complete control)
How it was run: as §3

[17] = test system: Oat, Wild (wild oat, Avena fatua); assay: Test A1 postemergence, Oat, Wild; settings: 0 to 100 scale (0 no effect, 100 complete control)
How it was run: as §2

[18] = test system: Pigweed, Palmer (palmer amaranth, palmer pigweed, Amaranthus palmeri); assay: Test A1 postemergence, Pigweed, Palmer; settings: 0 to 100 scale (0 no effect, 100 complete control)
How it was run: as §2

[19] = test system: ragweed (common ragweed, Ambrosia artemisiifolia); assay: Test A1 postemergence, ragweed; settings: 0 to 100 scale (0 no effect, 100 complete control)
How it was run: as §2

[20] = test system: Ryegrass, Italian (Italian ryegrass, Lolium multiflorum); assay: Test A1 postemergence, Ryegrass, Italian; settings: 0 to 100 scale (0 no effect, 100 complete control)
How it was run: as §3

soybean (Glycine max) [21] = assay: Test A1 postemergence, soybean; settings: 0 to 100 scale (0 no effect, 100 complete control)
How it was run: as §3

[22] = test system: wheat (Triticum aestivum); assay: Test A1 postemergence, wheat; settings: 0 to 100 scale (0 no effect, 100 complete control)
How it was run: as §3

[23] = test system: galium (catchweed bedstraw, Galium aparine); assay: Test A1 postemergence, galium; settings: 0 to 100 scale (0 no effect, 100 complete control)
How it was run: as §3

[24] = test system: horseweed (Erigeron canadensis); assay: Test A1 postemergence, horseweed; settings: 0 to 100 scale (0 no effect, 100 complete control)
From the text: Seeds of plant species selected from, blackgrass (Alopecurus myosuroides), corn (Zea mays), Foxtail, Giant (giant foxtail, Setaria faberi), goosegrass (Eleusine indica), kochia (Bassia scoparia), Oat, Wild (wild oat, Avena fatua), Pigweed, Palmer (palmer amaranth, palmer pigweed, Amaranthus palmeri), ragweed (common ragweed, Ambrosia artemisiifolia), Ryegrass, Italian (Italian ryegrass, Lolium multiflorum), soybean (Glycine max), and wheat (Triticum aestivum) were planted into a blend of loam soil and sand and treated preemergence with a directed soil spray using test chemicals formulated in a non-phytotoxic solvent mixture which included a surfactant. At the same time, plants selected from these crop and weed species and also galium (catchweed bedstraw, Galium aparine) and horseweed (Erigeron canadensis) were planted in pots containing the same blend of loam soil and sand and treated with postemergence applications of test chemicals formulated in the same manner. Plants ranged in height from 2 to 10 cm and were in the one- to two-leaf stage for the postemergence treatment. […] A dash (-) response means no test result.

[25] = test system: barnyardgrass (Echinochloa crus-galli); assay: Test B1 flooded paddy test, barnyardgrass; settings: 250 g ai/ha, Flood, applied to paddy water, 2-leaf stage, visually evaluated after 10 to 14 days
From the text: (§4) A dash (-) response means no test result.

[26] = test system: ducksalad (Heteranthera limosa); assay: Test B1 flooded paddy test, ducksalad; settings: 250 g ai/ha, Flood, applied to paddy water, 2-leaf stage, visually evaluated after 10 to 14 days
From the text: as §4

rice (Oryza sativa) = assay: Test B1 flooded paddy test, rice; settings: 250 g ai/ha, Flood, applied to paddy water, 2-leaf stage, visually evaluated after 10 to 14 days
From the text: as §4

[27] = 31 g ai/ha, 0 to 100 scale (0 no effect, 100 complete control)
[28] = 125 g ai/ha, 0 to 100 scale, 0 no effect, 100 complete control
[29] = Postemergence, 125 g ai/ha, 10 days

Cc1cc(C)c(N2CC3(CCCCC3)CC2=O)cc1NS(=O)(=O)C(F)(F)F [Compound 392]
40: Plant response rating, Blackgrass [1, 28] | Plant response rating, Goosegrass [4, 27] | Plant response rating, Pigweed, Palmer [18, 29]
60: Plant response rating, Oat, Wild [6, 28] | Plant response rating, Ryegrass, Italian [9, 28] | Plant response rating, Soybean (soybean (Glycine max) [21]; [29])
10: Plant response rating, Blackgrass [1, 27] | Plant response rating, Corn (corn (Zea mays) [2]; [27]) | Plant response rating, Corn (corn (Zea mays) [2]; [28]) | Kochia plant response rating (kochia (Bassia scoparia) [16]; 31 g ai/ha, postemergence)
70: Plant response rating, Ragweed [19, 29]
20: Plant response rating, Kochia (kochia (Bassia scoparia) [5]; [27]) | Plant response rating, Kochia (kochia (Bassia scoparia) [5]; [28]) | Plant response rating, Oat, Wild [6, 27] | Plant response rating, Pigweed, Palmer [7, 28] | Plant response rating, Kochia (kochia (Bassia scoparia) [16]; [29]) | Plant response rating, Horseweed [24, 29]
80: Plant response rating, Galium [23, 29]
30: Ragweed plant response rating ([19]; 31 g ai/ha, postemergence) | Plant response rating, Wheat [22, 29]
65: Plant response rating, Ducksalad (0 to 100 scale, 0 is no effect, 100 is complete control) [26]
100: Plant response rating, Foxtail, Giant [3, 28] | Plant response rating, Goosegrass [4, 28]
50: Plant response rating, Wheat [11, 28] | Soybean plant response rating (soybean (Glycine max) [21]; 31 g ai/ha, postemergence) | Galium plant response rating ([23]; 31 g ai/ha, postemergence)
0: Plant response rating, Foxtail, Giant [3, 27] | Plant response rating, Pigweed, Palmer [7, 27] | Plant response rating, Ragweed [8, 27] | Plant response rating, Ragweed [8, 28] | Plant response rating, Ryegrass, Italian [9, 27] | Plant response rating, Soybean (soybean (Glycine max) [10]; [27]) | Plant response rating, Soybean (soybean (Glycine max) [10]; [28]) | Plant response rating, Wheat [11, 27] | Blackgrass plant response rating ([12]; 31 g ai/ha, postemergence) | Plant response rating, Blackgrass [12, 29] | Corn plant response rating (corn (Zea mays) [13]; 31 g ai/ha, postemergence) | Plant response rating, Corn (corn (Zea mays) [13]; [29]) | Foxtail, Giant plant response rating ([14]; 31 g ai/ha, postemergence) | Plant response rating, Foxtail, Giant [14, 29] | Goosegrass plant response rating ([15]; 31 g ai/ha, postemergence) | Plant response rating, Goosegrass [15, 29] | Oat, Wild plant response rating ([17]; 31 g ai/ha, postemergence) | Plant response rating, Oat, Wild [17, 29] | Pigweed, Palmer plant response rating ([18]; 31 g ai/ha, postemergence) | Ryegrass, Italian plant response rating ([20]; 31 g ai/ha, postemergence) | Plant response rating, Ryegrass, Italian [20, 29] | Wheat plant response rating ([22]; 31 g ai/ha, postemergence) | Horseweed plant response rating ([24]; 31 g ai/ha, postemergence) | Plant response rating, Barnyardgrass (0 to 100 scale, 0 is no effect, 100 is complete control) [25] | Plant response rating, Rice (0 to 100 scale, 0 is no effect, 100 is complete control) (rice (Oryza sativa))
